Data set [1] relates to Human immunodeficiency virus 1. The experiment in a line: Antiviral activity against HIV1 3B infected in human MT4 cells assessed as reduction in virus-induced cytopathic effect after 5 days by MTT assay. The format is functional, organism-based. The note with it: Human immunodeficiency virus 1, 3B, MT4, 120 h.
Data set [2] is described as follows: Selectivity index, ratio of CC50 for human MT4 cells to EC50 for HIV1 3B infected in human MT4 cells. Type of data set: toxicity, cell-based. The note with it: read-out: Ratio CC50/EC50.
The target in data set [3] is C-X-C chemokine receptor type 4 (Homo sapiens, UniProt P61073). The experiment in a line: Displacement of [125I]SDF-1 from human CXCR4 expressed in HEK293 cell membrane. The format is cell membranes. Background: Displacement assays read how much labelled ligand stays bound in the presence of the test substance.
Data set [4] is described as follows: Selectivity index, ratio of CC50 for human MT4 cells to EC50 for HIV LAV Clade B infected in human MT4 cells. Type of data set: toxicity, cell-based. To be noted: read-out: Ratio CC50/EC50.
Data set [5] concerns Human immunodeficiency virus. Nature of the data set: Antiviral activity against HIV LAV Clade B infected in human MT4 cells assessed as inhibition of syncytia formation preincubated with cells for 1 hr followed by viral infection […] by inverted optical microscopic analysis. Type of data set: functional, organism-based. The note with it: Human immunodeficiency virus 1, LAV Clade B.

Data set [6] concerns Human immunodeficiency virus 1. The experiment in a line: Antiviral activity against HIV1 clinical isolate X4 by cell based assay. Type of data set: functional, organism-based. To be noted: Human immunodeficiency virus 1, isolate X4.
Data set [7] deals with Human immunodeficiency virus 1. The experiment in a line: Antiviral activity against HIV1 clinical isolate R5/X4 by cell based assay. The note with it: Human immunodeficiency virus 1, isolate R5/X4. The format is functional, organism-based.
Data set [8] deals with Human immunodeficiency virus 1. The experiment in a line: Antiviral activity against HIV1 clinical isolate R5 by cell based assay. The format is functional, organism-based. To be noted: Human immunodeficiency virus 1, isolate R5.
Data set [9] has as its system Human immunodeficiency virus 1. Nature of the data set: Antiviral activity against HIV1 NL4-3 clinical isolate X4 infected in human MT4 cells assessed as reduction in virus-induced cytopathic effect after 5 days by MTT assay. The note with it: Human immunodeficiency virus 1, NL4-3 isolate X4, MT4, 120 h. The format is functional, organism-based. (Damage to the host cells serves as the signal in cytopathic effect assays.)

Data set [10] can be described thus: Elimination half life in dog plasma at 0.41 mg/kg, iv and 0.41 to 2.05 mg/kg, sc by LC-MS/MS analysis. Type of data set: ADME, organism-based, Canis lupus familiaris. The note with it: read-out: beta t1/2 (converted).
Data set [11] deals with Human immunodeficiency virus 1. The experiment in a line: Antiviral activity against HIV1 infected in human MT4 cells assessed as reduction in virus-induced cytopathic effect after 4 to 5 days by MTS assay. The note with it: Human immunodeficiency virus 1, MT4. Type of data set: functional, organism-based.
Data set [12] is described as follows: Tmax in Swiss Webster mouse plasma at 25 mg/kg, sc by LC-MS/MS analysis. The format is ADME, organism-based.
The test system of data set [13] is Human immunodeficiency virus 2. The experiment in a line: Antiviral activity against HIV2 ROD infected in human MT4 cells assessed as reduction in virus-induced cytopathic effect after 5 days by MTT assay. The note with it: Human immunodeficiency virus 2, ISOLATE ROD, MT4, 120 h.

Chain of C-X-C chemokine receptor type 4 (P61073 whole entry): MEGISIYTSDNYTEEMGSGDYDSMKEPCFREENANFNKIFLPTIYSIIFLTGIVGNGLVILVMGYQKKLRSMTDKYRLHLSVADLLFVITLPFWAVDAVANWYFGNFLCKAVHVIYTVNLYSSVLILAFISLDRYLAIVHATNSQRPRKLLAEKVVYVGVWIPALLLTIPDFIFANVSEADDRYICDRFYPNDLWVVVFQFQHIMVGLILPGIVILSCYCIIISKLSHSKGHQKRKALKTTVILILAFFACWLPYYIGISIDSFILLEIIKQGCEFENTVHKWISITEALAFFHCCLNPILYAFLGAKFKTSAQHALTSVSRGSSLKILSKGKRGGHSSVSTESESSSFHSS

Turning to `c1cc(CN2CCCSCCSCCCNCC2)ccc1CN1CCCSCCSCCCNCC1`, the EC50 in data set [1] was more than 6800 nM.

Consider `c1cc(CN2CCCOCCOCCCNCC2)ccc1CN1CCCOCCOCCCNCC1`, for which, in data set [1], the EC50 was more than 363000 nM.

Consider `C1CNCCNCCCN[C@H]([C@@H]2CNCCCNCCNCCCN2)CNC1`, for which the selectivity ratio in [2] is more than 1000. The 50% effective concentration (EC50) in data set [1] was found to be 100 nM.

Take `C1CNCCNCCCN(CCCN2CCCNCCNCCCNCC2)CCNC1`: in [2], the selectivity ratio is more than 2500. For the same compound, in [1], the EC50 was found to be 248 nM.

In turn, `c1ccc2c(NC3CCNCC3)nc(NCc3ccc(CNCCCNC4CCCCC4)cc3)nc2c1` showed a concentration giving a half-maximal response (EC50) in data set [3] of 68.4 nM.

As for `Cc1cn([C@H]2C[C@H](N=[N+]=[N-])[C@@H](COC(=O)CCCCN3CCCN(Cc4ccc(CN5CCCNCCNCCCNCC5)cc4)CCNCCCNCC3)O2)c(=O)[nH]c1=O`, the selectivity ratio in data set [4] is 15000. For the same compound, the EC50 in data set [5] stood at 5 nM.

Take `c1cc(CN2CCCNCCOCCCNCC2)ccc1CN1CCCNCCOCCCNCC1`: the concentration for a half-maximal effect (EC50) in data set [1] is 4500 nM.

With `Cc1cn([C@H]2C[C@H](N=[N+]=[N-])[C@@H](COC(=O)CCCCN3CCCNCCNCCCNCC3)O2)c(=O)[nH]c1=O`, in data set [5], the EC50 was 10 nM.

With `CC(C)CN(CCC[C@H](NC(=O)c1ccc(CNCc2ncc[nH]2)cc1)C(=O)N[C@@H](C)c1cccc2ccccc12)CC(C)C`, the half-maximal effective concentration (EC50) in data set [1] amounted to 6.7 nM.

For `Cc1cn([C@H]2C[C@H](N=[N+]=[N-])[C@@H](COC(=O)CCCCN3CCCN(Cc4ccc(CN5CCCN(C(=O)OC(C)(C)C)CCN(C(=O)OC(C)(C)C)CCCN(C(=O)OC(C)(C)C)CC5)cc4)CCN(C(=O)OC(C)(C)C)CCCN(C(=O)OC(C)(C)C)CC3)O2)c(=O)[nH]c1=O`, the selectivity ratio in [4] was determined as 1000. Moreover, in data set [5], the 50% effective concentration (EC50) is 5 nM.

With `c1cc(CN2CCCNCCCCCCNCC2)ccc1CN1CCCNCCCCCCNCC1`, the 50% effective concentration (EC50) in data set [1] was 9600 nM.

On to `Clc1cc(CN2CCCNCCNCCCNCC2)cc(Cl)n1`, for which the concentration for a half-maximal effect (EC50) in data set [6], in data set [7] and in data set [8] was 1200 nM throughout.

On to `CCCN(CCC)CCCCNC(=O)c1ccc(CN(Cc2ncc[nH]2)Cc2ncc[nH]2)cc1`, for which the concentration for a half-maximal effect (EC50) in data set [1] is 4 nM.

In the case of `Cn1c(CN(CCN2CCCCC2)CC2CCCN(C3CCCC3)C2)nc2ccccc21` (centres undefined), in data set [9], the EC50 stood at 600 nM.

As for `c1ccc(CNCc2ccc(CN3CCCNCCNCCCNCC3)cc2)nc1`, the half-life in data set [10] is 93.6 min. The half-maximal effective concentration (EC50) in data set [11] came out at 1 nM. Moreover, the Tmax in data set [12] was 15 min.

In the case of `c1cc(CN2CCCNCCNCCCNCC2)ccc1CN1CCCNCCNCCCNCC1` [PLERIXAFOR], the 50% effective concentration (EC50) in data set [13] came to 2 nM.

Usually EC50 stands for the concentration giving half of the maximal effect. As usually defined, the Tmax is the time from dosing to the highest level.

(Values after ChEMBL document CHEMBL3779779, “Discovery of non-peptide small molecular CXCR4 antagonists as anti-HIV agents: Recent advances and future opportunities” (Eur J Med Chem, 2016).)
